Results as given in the NIST ThermoML archive (doi:10.1016/j.tca.2013.05.030).

Assay: mn = molality of the nth substance listed, in mol/kg
Details: 101 kPa, Liquid; for viscosity: Capillary tube (Ostwald / Ubbelohde) method; for mass density: Pycnometric method; for speed of sound: Sing-around technique in a fixed-path interferometer

CC(C)Cc1ccc(C(C)C(=O)[O-])cc1.[Na+] (stereo not given) [sodium ibuprofen] + O
Details	mass density [kg/m3]	speed of sound [m/s]	viscosity [mPa·s]
298.15 K, m1 = 0.1048	1001.4	1512.8	0.973
298.15 K, m1 = 0.1525	1003.2	1518.4	1.007
298.15 K, m1 = 0.2231	1005.8	1525.6	1.07
298.15 K, m1 = 0.3179	1009.1	1533.2	1.173
298.15 K, m1 = 0.3721	1010.9	1536.4	1.242
298.15 K, m1 = 0.4422	1013.1	1540	1.342
298.15 K, m1 = 0.4678	1013.9	1540.8	1.381
303.15 K, m1 = 0.1048	999.9	1523.6	0.867
303.15 K, m1 = 0.1525	1001.7	1528.4	0.897
303.15 K, m1 = 0.2231	1004.3	1534.4	0.953
303.15 K, m1 = 0.3179	1007.5	1540.8	1.043
303.15 K, m1 = 0.3721	1009.3	1543.2	1.104
303.15 K, m1 = 0.4422	1011.5	1546.4	1.194
303.15 K, m1 = 0.4678	1012.3	1547.2	1.228
308.15 K, m1 = 0.1048	998.2	1532	0.78
308.15 K, m1 = 0.1525	1000	1536.4	0.808
308.15 K, m1 = 0.2231	1002.5	1542	0.857
308.15 K, m1 = 0.3179	1005.7	1548	0.937
308.15 K, m1 = 0.3721	1007.4	1550.8	0.992
308.15 K, m1 = 0.4422	1009.6	1553.6	1.072
308.15 K, m1 = 0.4678	1010.4	1554.4	1.104
313.15 K, m1 = 0.1048	996.3	1539.2	0.707
313.15 K, m1 = 0.1525	998	1542.8	0.732
313.15 K, m1 = 0.2231	1000.5	1547.6	0.777
313.15 K, m1 = 0.3179	1003.6	1552.8	0.848
313.15 K, m1 = 0.3721	1005.3	1555.2	0.898
313.15 K, m1 = 0.4422	1007.4	1557.2	0.969
313.15 K, m1 = 0.4678	1008.1	1558	0.997

O [water] + CC(C)Cc1ccc(C(C)C(=O)[O-])cc1.[Na+]
Details	speed of sound [m/s]
313.15 K, m2 = 0	1528.8
